From patent US20060040861A1, “Method of treating, preventing, and diagnosing prostate cancer” (priority 2004, published 2006)

How the values were obtained:
Assay type in all cases: cell-based, human
DU145 cells [1] = assay: MTT assay (cell growth / viability); conditions: 0-1.92 μg/ml, 5 days
Protocol: (§1) DU145 (1×10^3/well), PC-3 (1×10^3/well) and LNCaP-FGC (1.5×10^3/well) cells were seeded in 96-well plates 24 hours prior to serum starvation. Cells were starved of serum for 24 hours and then incubated in the serum-free medium with or without 12.5 μg/ml leptin for 5 days. 3-(4,5-dimethylthiazol-2-yl)-2,5-diphenyl tetrazolium bromide (MTT) was added to each well to a concentration of 0.5 mg/ml. After 3-hour incubation at 37° C., cells were lysed in 50% dimethylformamide and 20% SDS at 37° C. Optical densities (O.D.) at 550 nm and 670 nm were measured by a plate reader, and differential O.D. between 550 nm and 670 nm (O.D. 550 nm minus O.D. 670 nm) were determined. Each experiment was performed in quadruplicate, and the values are reported as mean±SD.
(§2) DU145 (0.5-1.0×10^3/well), PC-3 (0.5-1.0×10^3/well), and LNCaP FGC (0.75-1.5×10^3/well) cells were seeded in 96-well plates 24 hours prior to serum starvation. Cells were starved of serum for 24 hours and then incubated in the serum-free medium with or without cytokine(s), DHT and/or doxorubicin at indicated concentrations for 5 days. MTT was added to each well to a concentration of 0.5 mg/ml. After being incubated at 37° C. for 3 hours, cells were lysed in 50% dimethylformamide and 20% SDS at 37° C. Optical densities (OD) at 550 and 670 nm were measured by a plate reader, and differential OD between 550 and 670 nm (OD 550 minus OD 670 nm) were determined. Each experiment was performed in quadruplicate, and the values were reported as mean±S.D.
Sucrose gradients were set up in 2.2-ml centrifuge tubes (Beckman Coulter, Inc., Fullerton, Calif.) by layering 5, 10, 15 and 20% (w/v) sucrose in velocity sedimentation buffer (10 mM HEPES, pH 8; 125 mM NaCl). Gradients were then equilibrated overnight at 4° C. Twenty micrograms of f-adiponectin in 200 μl of velocity sedimentation buffer containing 5 μl of HMW-Native protein marker kit (GE Healthcare, Piscataway, N.J.) set to 0.5 μg/μl albumin was overlayed onto the sucrose gradients and spun in a Beckman TLS-55 rotor at 55,000 rpm for 5 hours at 4° C. Fractions (150 μl each) were sequentially collected from the top to the bottom; aliquots were removed and used immediately in the MTT assay. The remaining material was stored at −80° C. for Western blot analysis with anti-adiponectin antibody and SDS-PAGE with silver staining. For the MTT assay, DU145 cells (0.5×1 03/well) were serum-starved and incubated in triplicate in 60 μl of the serum-free medium plus 30 μl of each fraction. For Western blot analysis, 0.5 μl of each fraction was electrophoresed on a 10% SDS-polyacrylamide gel and electrotransferred to a polyvinylidene difluoride membrane. The membrane was washed, blocked, and hybridized with the anti-adiponectin antibody. Bands were visualized using a Lumiglo reagent (Cell Signaling Technology, Inc., Beverly, Mass.). For SDS-PAGE, 20 μl of each fraction was electrophoresed on a 10% SDS-polyacrylamide gel, followed by silver staining using the Silver Stain kit (Bio-Rad Laboratories, Inc., Hercules, Calif.) to visualize molecular weight markers.

LNCaP-FGC cells [2] = assay: MTT assay (cell growth / viability); conditions: 0-1.92 μg/ml, 5 days
Protocol: as §1, §2

PC-3 cells [3] = assay: MTT assay (cell growth / viability); conditions: 0-1.92 μg/ml, 5 days
Protocol: as §1, §2

DU145 cells [4] = assay: [3H] thymidine incorporation assay; conditions: DU145, serum-deprived; leptin up to 12.5 μg/ml, IL-6 100 ng/ml or IGF-I 100 ng/ml; 20 hours
Protocol: (§3) DU145 (1.5×10^5/well), PC-3 (1.0×10^5/well) and LNCaP-FGC (2.0×10^5/well) cells were seeded into 24-well plates 24 hours before serum-starvation. Cells were deprived of serum for 48 hours, followed by incubation with leptin at indicated concentrations or 100 ng/ml IL-6 for 20 hours. In some experiments, cells were pretreated with SP600125 prior to cytokine stimulation as described below. Cells in each well were pulsed with 1 μCi of [^3H] thymidine (Amersham Pharmacia Biotech Inc., Piscataway, N.J., USA) during the final 5 hours, washed once with PBS, fixed with cold 5% trichloroacetic acid, solubilized with 0.25 M NaOH, and counted in scintillant. Each experiment was performed in quadruplicate, and the values are reported as mean±SD.
(§4) SP600125 was dissolved in DMSO to make a stock solution. Eighty-percent confluent prostate cancer cells were serum-starved for 24 hours and pretreated with SP600125 at indicated concentrations for 30 minutes, followed by leptin treatment (12.5 μg/ml): 15 minutes for Western blot analysis or 20 hours for thymidine incorporation assays. DMSO-treated cells were employed as controls.

PC-3 cells [5] = assay: [3H] thymidine incorporation assay; conditions: PC-3, serum-deprived; leptin up to 12.5 μg/ml, IL-6 100 ng/ml or IGF-I 100 ng/ml; 20 hours
Protocol: as §3, §4

LNCaP-FGC cells [6] = assay: [3H] thymidine incorporation assay; conditions: serum-deprived, leptin up to 12.5 μg/ml, IL-6 100 ng/ml or IGF-I 100 ng/ml, 20 hours
Protocol: as §3

Row | Molecule | cell growth (MTT), doxorubicin alone (DU145 cells [1]) | cell growth (MTT), doxorubicin alone (LNCaP-FGC cells [2]) | cell growth (MTT), doxorubicin alone (PC-3 cells [3]) | [3H] thymidine incorporation (cell proliferation), cytokine alone (DU145 cells [4]) | [3H] thymidine incorporation (cell proliferation), cytokine alone (PC-3 cells [5]) | [3H] thymidine incorporation (cell proliferation), cytokine alone (LNCaP-FGC cells [6])
1 | COc1cccc2c1C(=O)c1c(O)c3c(c(O)c1C2=O)C[C@@](O)(C(=O)CO)C[C@@H]3O[C@H]1C[C@H](N)[C@H](O)[C@H](C)O1 [doxorubicin, reference compound] | suppressed cell growth in a dose-dependent manner | suppressed cell growth in a dose-dependent manner | suppressed cell growth in a dose-dependent manner |  |  | 
2 | IGF-I: Recombinant human IGF-I from R&D Systems; adipose cytokine |  |  |  | augmented cell proliferation | augmented cell proliferation | did not affect
3 | IL-6: Recombinant human IL-6 purchased from R&D Systems; adipose cytokine |  |  |  | stimulated cell proliferation | stimulated cell proliferation | inhibited
